Data: publication PMC6315173, “Characterization of the Apelin/Elabela Receptors (APLNR) in Chickens, Turtles, and Zebrafish: Identification of a Novel Apelin-Specific Receptor in Teleosts” (Frontiers in Endocrinology, 2018)
Residues, ends and D or L forms follow the SMILES beside them. No end group written: not given here.

Columns and labels:
[1] = system: zebrafish APLNR3a (zfAPLNR3a); assay: pGL3-CRE-luciferase reporter assay, HEK293 cells expressing zebrafish APLNR3a; assay type: cell-based, zebrafish (Danio rerio); conditions: HEK293 cells transiently expressing zfAPLNR3a, inhibition of forskolin (5 μM)-stimulated pGL3-CRE-luciferase activity, 6 h, mean ± S.E. of 3 independent experiments, N = EC50 cannot be evaluated
Description: (§1) In brief, HEK293 cells were cultured on a six-well plate and grown for 24 h before transfection. The cells were then transfected with a mixture containing 700 ng pGL3-CRE-Luciferase reporter construct (or pGL4-SRE-Luciferase reporter construct), 200 ng of receptor expression plasmid [or empty pcDNA3.1(+) vector as a negative control], and 2 μl jetPRIME (Polyplus Transfection, Illkirch, France) in 200 μl buffer. Twenty-four hour later, HEK293 cells were sub-cultured into a 96-well plate at 37°C for an additional 24 h before treatment. After removal of medium from the 96-well plate, the cells were treated with 100 μl peptide-containing medium (or peptide-free medium) for 6 h in the presence or absence of forskolin (5 μM). Finally, HEK293 cells were lysed with 1 × passive lysis buffer for luciferase assay (Promega, Madison, WI, USA) and the luciferase activity of the cell lysate was measured by a Multimode microplate Reader (TriStar LB 941, EG&G Berthold, Germany) according to the manufacturer's instruction.
(§2) The luciferase activity in each treatment group was expressed as the relative fold changes as compared with their respective control groups. The data were analyzed by non-linear regression followed by one-way ANOVA using GraphPad Prism 5 (GraphPad, San Diego, CA, USA). To validate the results, all experiments were repeated at least twice.

[2] = system: tilapia APLNR3b (tiAPLNR3b); assay: pGL3-CRE-luciferase reporter assay, HEK293 cells expressing tilapia APLNR3b; assay type: cell-based, Nile tilapia (Oreochromis niloticus); conditions: HEK293 cells transiently expressing tiAPLNR3b, inhibition of forskolin (5 μM)-stimulated pGL3-CRE-luciferase activity, 6 h, mean ± S.E. of 3 independent experiments, N = EC50 cannot be evaluated
Description: as §1, §2

[3] = target: T1, zebrafish APLNR2b (zfAPLNR2b) (Danio rerio, UniProt A0T2N3); assay: pGL3-CRE-luciferase reporter assay, HEK293 cells expressing zebrafish APLNR2b; assay type: cell-based; conditions: SEM
T1 construct: the open reading frame (ORF) of each APLNR was amplified from the animal; expressed in transfected cells; host or cells: HEK293
T1 sequence (A0T2N3 1-359): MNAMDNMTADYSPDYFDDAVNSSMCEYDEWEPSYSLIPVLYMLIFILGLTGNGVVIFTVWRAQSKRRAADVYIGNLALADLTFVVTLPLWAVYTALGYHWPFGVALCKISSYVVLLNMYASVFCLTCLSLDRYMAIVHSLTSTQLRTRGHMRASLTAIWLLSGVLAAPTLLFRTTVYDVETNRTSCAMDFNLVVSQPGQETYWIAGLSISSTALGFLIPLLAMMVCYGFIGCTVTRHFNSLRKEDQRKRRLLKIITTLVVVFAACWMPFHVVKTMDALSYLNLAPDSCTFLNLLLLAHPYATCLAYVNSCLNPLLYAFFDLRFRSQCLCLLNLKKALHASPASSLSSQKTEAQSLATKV
Description: as §1, §2

[4] = target: T2, zebrafish APLNR2a (zfAPLNR2a) (Danio rerio, UniProt Q7SZP9); assay: pGL3-CRE-luciferase reporter assay, HEK293 cells expressing zebrafish APLNR2a; assay type: cell-based; conditions: SEM
T2 construct: the open reading frame (ORF) of each APLNR was amplified from the animal; expressed in transfected cells; host or cells: HEK293
T2 sequence (Q7SZP9 1-362): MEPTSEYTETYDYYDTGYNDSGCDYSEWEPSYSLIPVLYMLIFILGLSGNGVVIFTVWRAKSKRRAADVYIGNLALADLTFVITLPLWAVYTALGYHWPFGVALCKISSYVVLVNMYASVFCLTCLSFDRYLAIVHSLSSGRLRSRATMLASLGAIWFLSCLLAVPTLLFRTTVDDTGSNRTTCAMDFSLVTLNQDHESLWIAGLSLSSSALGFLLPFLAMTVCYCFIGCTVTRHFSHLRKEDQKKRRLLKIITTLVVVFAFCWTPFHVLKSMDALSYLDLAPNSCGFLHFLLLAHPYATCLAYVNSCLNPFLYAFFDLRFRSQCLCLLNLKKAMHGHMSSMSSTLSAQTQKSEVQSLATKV
Description: as §1, §2

zebrafish APLNR3a = assay: Western blot of ERK1/2 phosphorylation, HEK293 cells expressing zebrafish APLNR3a; assay type: cell-based, zebrafish (Danio rerio)
Description: (§3) HEK293 cells cultured in a 60-mm culture dish (Nunc, Rochester, NY, USA) with 70% confluence were transfected by 1 μg of receptor expression plasmid using jetPRIME reagent according to manufacturers' instruction (Polyplus Transfection, Illkirch, France). After the 24-h transfection, HEK293 cells were sub-cultured into a 24-well plate, serum-deprived for 12 h and then treated by peptides for 10 min. These cells were washed with cold PBS and lysed by RIPA Lysis Buffer (Roche, Basel, Switzerland) on ice. Western blot was used to examine ERK1/2 phosphorylation and β-actin levels in cell lysates.

zebrafish APLNR2a = target: T3, zebrafish APLNR2a (Danio rerio, UniProt Q7SZP9); assay: Western blot of ERK1/2 phosphorylation, HEK293 cells expressing zebrafish APLNR2a; assay type: cell-based; conditions: 100 nM, duplicates, time-dependent (5, 10, 20 min)
T3 construct: the open reading frame (ORF) of each APLNR was amplified from the animal; expressed in transfected cells; host or cells: HEK293
T3 sequence (Q7SZP9 1-362): T2 sequence (Q7SZP9 1-362)
Description: as §3, with “After the 24-h transfection, HEK293 cells were sub-cultured into a 24-well plate, serum-deprived for 12 h and then treated by peptides for 10 min.” left out

Row | Compound | EC50 [1] [nM] | EC50 [2] [nM] | EC50 [3] [nM] | EC50 [4] [nM] | ERK1/2 phosphorylation, Western blot (zebrafish APLNR3a) | phosphorylation of ERK1/2, Western blot (zebrafish APLNR2a) | EC50 ([1]; SEM) [nM] | EC50 ([2]; SEM) [nM]
1 | CC(C)C[C@H](NC(=O)[C@H](CC(N)=O)NC(=O)[C@H](CC(C)C)NC(=O)[C@H](Cc1ccccc1)NC(=O)[C@H](CC(=O)O)NC(=O)[C@H](Cc1c[nH]cn1)NC(=O)[C@H](CCCCN)NC(=O)[C@@H](NC(=O)CNC(=O)[C@H](Cc1c[nH]cn1)NC(=O)[C@H](CCCCN)NC(=O)[C@@H](N)CC(=O)O)[C@@H](C)O)C(=O)N[C@@H](CCCNC(=N)N)C(=O)N[C@@H](CCCNC(=N)N)C(=O)N[C@@H](CCCCN)C(=O)N[C@@H](Cc1ccc(O)cc1)C(=O)N[C@@H](CCCNC(=N)N)C(=O)N[C@@H](CCCNC(=N)N)C(=O)N[C@@H](Cc1c[nH]cn1)C(=O)N[C@@H](CC(N)=O)C(=O)N[C@@H](CS)C(=O)N1CCC[C@H]1C(=O)N[C@@H](CCCCN)C(=O)N[C@@H](CCCCN)C(=O)N[C@@H](CCCNC(=N)N)C(=O)N[C@@H](CS)C(=O)N[C@@H](CC(C)C)C(=O)N1CCC[C@H]1C(=O)N[C@@H](CC(C)C)C(=O)N[C@@H](Cc1c[nH]cn1)C(=O)N[C@@H](CO)C(=O)N[C@@H](CCCNC(=N)N)C(=O)N[C@H](C(=O)N1CCC[C@H]1C(=O)N[C@@H](Cc1ccccc1)C(=O)N1CCC[C@H]1C(=O)O)C(C)C [zfELA-36] (H-DKHGTKHDFLNLRRKYRRHNCPKKRCLPLHSRVPFP-OH; N-terminus and C-terminus assumed) | > 100 | > 100 | 1.29 ± 0.9 | 1.61 ± 0.8 | not ELA-36 | can enhance phosphorylation of ERK1/2 |  | 
2 | TPLRQNPARAGRSQRPAGWRRRRPRPRLSHKGPMPF [zfApelin-36] |  |  | 0.51 ± 0.31 | 0.89 ± 0.44 | can induce ERK1/2 phosphorylation | can enhance phosphorylation of ERK1/2 | 0.45 ± 0.12 | 0.77 ± 0.24
